Where “and” joins values, the source holds several entries; their conditions need not be identical. Identical values can stand only once.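 Growth conditions: 96-well plates. Treatment: test compound, 48 hours, 5 concentrations. Analysis: linear interpolation between bracketing concentrations; unreached endpoints set to highest concentration. Here, GI50 denotes the concentration required for 50% inhibition of growth. TGI: total growth inhibition.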 Where a SMILES comes first, the peptide text is derived from it. The star is where a group is joined. Boc = CC(C)(C)OC(=O)* Some results are limits rather than exact numbers.

For one test, the system named is SK-MEL-5 melanoma. Put plainly: NCI tumour cell line growth inhibition, 48 h.
With `O=C(O)c1cc2c(cc1CC(Cc1ccc3c(c1)CCC3)C(=O)O)CCC2` (configuration not stated), the TGI was above 100 µM.

For the compound `COc1cc(-c2cc(=O)c3cc4c(cc3[nH]2)OCO4)cc(OC)c1O`, the TGI is above 10 µM.

For `C[C@@]12[C@H]3CC[C@@H]1[C@H](O)C(=O)N2CC3`, the TGI was above 100 µM.

`COC(=O)CNC(=O)C(Cc1ccccc1)NC(=O)C(CCSC)NC(=O)C(Cc1ccc(O)cc1)NC(=O)OC(C)(C)C` (configuration not stated) (Boc-YMFG-OMe; configuration not given here): the TGI is above 100 µM.

Take `O=C1CCC[C@@H]2NC[C@@H](c3ccc4c(c3)OCO4)[C@H]12`: the TGI is above 25 µM.

In the case of `Cc1ccc([C@@H]2[C@@H](C(=O)c3ccccn3)[C@H](c3ccc(C)cc3)C[C@](O)(c3ccccn3)[C@H]2C(=O)c2ccccn2)cc1`, the TGI is above 100 µM.

`O=C(Nc1ccc(Br)cc1)c1c(-c2ccccc2)c2ccc(O)cc2oc1=O` displayed a TGI above 10 µM.

The compound `O=C1C(Cl)=C(N2CCN(C3=C(Cl)C(=O)c4ccccc4C3=O)CC2)C(=O)c2ccccc21` returned a TGI of 3.25 µM.

As to `CCOc1cc(NC(C)=O)ccc1C(=O)NNC(=O)c1ccccc1OC(C)=O`, the TGI amounted to 22.6 µM.

In turn, `O=C(O)CN(CCNC(=O)OCC1c2ccccc2-c2ccccc21)CCNC(=O)OCC1c2ccccc2-c2ccccc21` displayed a TGI of 36.8 µM.

A further test relates to U251 CNS. In words: NCI tumour cell line growth inhibition, 48 h.
`CC(C)Sc1nc(C#N)cc2c1CCCC2` displayed a TGI above 100 µM.

Compound `CCOP(=O)(OCC)/C(C#N)=C/c1cnc(-c2ccccc2)[nH]1` returned a TGI above 100 µM.

For the compound `CC(=O)OCC1OC(OC(C)(C)CC/C=C(\C)[C@@H]2C/C=C(\C)CC/C=C(\C)CC2)C(O)C(O)C1OC(C)=O` (some centres not stated), the GI50 is 39.3 µM and the TGI was above 100 µM.

In turn, `O=C(CN1c2ccccc2Sc2ccccc21)N1CCNCC1` yielded a TGI above 100 µM.

On to `CN(C)CCCOC(=O)C(c1ccccc1)C1(O)CCSCC1` (configuration not stated), for which the TGI is above 100 µM.

As to `OCC1CCCCCCCCCCC12SCCCS2` (configuration not stated), the TGI is above 100 µM.

In the case of `COCOC1/C=C/CCCCC2=C(C)C=C(C1)O2` (configuration not stated), the TGI is above 100 µM.

In turn, `C=C(C)C12CC(COC(=O)c3ccccc3)C34OC5(OC1C3C1OC1(CO)C(O)C1(O)C(OC(=O)c3ccccc3)C(C)C(C(C)CCCCCCC5O)C14)O2` (configuration not stated) gave a TGI above 74.6 µM.

The compound `O=C(O)c1cc2c(cc1CC(Cc1ccc3c(c1)CCC3)C(=O)O)CCC2` (configuration not stated) gave a TGI above 100 µM.

`COc1cc(-c2cc(=O)c3cc4c(cc3[nH]2)OCO4)cc(OC)c1O`: the TGI was above 10 µM.

`C[C@@]12[C@H]3CC[C@@H]1[C@H](O)C(=O)N2CC3`: the TGI is above 100 µM.

In the case of `COC(=O)CNC(=O)C(Cc1ccccc1)NC(=O)C(CCSC)NC(=O)C(Cc1ccc(O)cc1)NC(=O)OC(C)(C)C` (configuration not stated) (Boc-YMFG-OMe; configuration not given here), the TGI is above 100 µM.

`O=C1CCC[C@@H]2NC[C@@H](c3ccc4c(c3)OCO4)[C@H]12` came in with a TGI above 25 µM.

Consider `Cc1ccc([C@@H]2[C@@H](C(=O)c3ccccn3)[C@H](c3ccc(C)cc3)C[C@](O)(c3ccccn3)[C@H]2C(=O)c2ccccn2)cc1`, for which the TGI was above 100 µM.

Consider `O=C(Nc1ccc(Br)cc1)c1c(-c2ccccc2)c2ccc(O)cc2oc1=O`, for which the TGI was above 10 µM.

The compound `O=C1C(Cl)=C(N2CCN(C3=C(Cl)C(=O)c4ccccc4C3=O)CC2)C(=O)c2ccccc21` had a TGI of 6.19 µM.

Compound `CCOc1cc(NC(C)=O)ccc1C(=O)NNC(=O)c1ccccc1OC(C)=O` came in with a TGI above 100 µM.

The compound `O=C(O)CN(CCNC(=O)OCC1c2ccccc2-c2ccccc21)CCNC(=O)OCC1c2ccccc2-c2ccccc21` had a TGI of 38.4 µM.

The test system of another test is SNB-75 CNS. Put plainly: NCI tumour cell line growth inhibition, 48 h.
In turn, `CC(C)Sc1nc(C#N)cc2c1CCCC2` came in with a TGI above 100 µM.

For `CCOP(=O)(OCC)/C(C#N)=C/c1cnc(-c2ccccc2)[nH]1`, the TGI was above 100 µM.

With `CC(=O)OCC1OC(OC(C)(C)CC/C=C(\C)[C@@H]2C/C=C(\C)CC/C=C(\C)CC2)C(O)C(O)C1OC(C)=O` (some centres not stated), the TGI is > 100 µM and 31.8 µM.

In turn, `O=C(CN1c2ccccc2Sc2ccccc21)N1CCNCC1` came in with a TGI above 100 µM.

With `CN(C)CCCOC(=O)C(c1ccccc1)C1(O)CCSCC1` (configuration not stated), the TGI is above 100 µM.

Compound `OCC1CCCCCCCCCCC12SCCCS2` (configuration not stated) returned a TGI above 100 µM.

Consider `COCOC1/C=C/CCCCC2=C(C)C=C(C1)O2` (configuration not stated), for which the TGI was above 100 µM.

Consider `C=C(C)C12CC(COC(=O)c3ccccc3)C34OC5(OC1C3C1OC1(CO)C(O)C1(O)C(OC(=O)c3ccccc3)C(C)C(C(C)CCCCCCC5O)C14)O2` (configuration not stated), for which the TGI was above 100 µM.

The compound `O=C(O)c1cc2c(cc1CC(Cc1ccc3c(c1)CCC3)C(=O)O)CCC2` (configuration not stated) gave a TGI above 100 µM.

In turn, `COc1cc(-c2cc(=O)c3cc4c(cc3[nH]2)OCO4)cc(OC)c1O` came in with a TGI above 10 µM.

The compound `C[C@@]12[C@H]3CC[C@@H]1[C@H](O)C(=O)N2CC3` registered a TGI above 100 µM.

The compound `COC(=O)CNC(=O)C(Cc1ccccc1)NC(=O)C(CCSC)NC(=O)C(Cc1ccc(O)cc1)NC(=O)OC(C)(C)C` (configuration not stated) (Boc-YMFG-OMe; configuration not given here) registered a TGI above 100 µM.

In turn, `O=C1CCC[C@@H]2NC[C@@H](c3ccc4c(c3)OCO4)[C@H]12` yielded a TGI above 25 µM.

Take `Cc1ccc([C@@H]2[C@@H](C(=O)c3ccccn3)[C@H](c3ccc(C)cc3)C[C@](O)(c3ccccn3)[C@H]2C(=O)c2ccccn2)cc1`: the TGI is above 100 µM.

For `O=C(Nc1ccc(Br)cc1)c1c(-c2ccccc2)c2ccc(O)cc2oc1=O`, the TGI was above 10 µM.

In the case of `O=C1C(Cl)=C(N2CCN(C3=C(Cl)C(=O)c4ccccc4C3=O)CC2)C(=O)c2ccccc21`, the TGI amounted to 9.86 µM.

On to `CCOc1cc(NC(C)=O)ccc1C(=O)NNC(=O)c1ccccc1OC(C)=O`, for which the TGI is above 38.7 µM.

In turn, `O=C(O)CN(CCNC(=O)OCC1c2ccccc2-c2ccccc21)CCNC(=O)OCC1c2ccccc2-c2ccccc21` returned a TGI of 67.5 µM.
